According to patent US6784153B1, “Methods of homing molecules to lung using membrane dipeptidase” (The Burnham Institute, priority 1998, dated 2004):
Entries after “also recorded” stand apart in the source; their conditions may differ.

Assays:
lung = experiment: in vivo homing of phage displaying peptides to lung; design: species or system mice; settings: for homing of lung homing phage to control kidney or brain: control organs
Protocol: For lung and pancreas, a mixture of phage libraries containing 10^10 TU was diluted in 200 μl DMEM and injected into the tail vein of anesthetized BALB/c mice (2 month old; Harlan Sprague Dawley; San Diego Calif.); AVERTIN (0.017 ml/g) was used as anesthetic (Pasqualini and Ruoslahti, supra, 1996). After 1-4 minutes, mice were snap frozen in liquid nitrogen or, after about 5 minutes of phage circulation, the mice were perfused through the heart with 5-10 ml of DMEM (SIGMA; St. Louis Mo.). To recover the phage, the organs from the perfused mice or partially thawed organs from snap frozen mice were collected and weighed, then were homogenized in 1 ml DMEM-PI (DMEM containing protease inhibitors (PI); phenylmethyl sulfonyl fluoride (PMSF; 1 mM), aprotinin (20 μg/ml), leupeptin (1 μg/ml)).
Organ samples were washed 3 times with ice cold DMEM-PI containing 1% bovine serum albumin (BSA), then directly incubated with 1 ml K91-kan bacteria for 1 hr. Ten ml NZY medium containing 0.2 μg/ml tetracycline (NZY/tet) was added to the bacterial culture, the mixture was incubated in a 37° C. shaker for 1 hr, then 200 μl aliquots were plated in agar plates containing 40 μg/ml tetracycline (tet/agar).
Approximately 250 to 300 individual bacterial colonies containing phage recovered from the various organs or tissues were grown for 16 hr in 5 ml NZY/tet. In some experiments, approximately 1000 individual bacteria containing phage were picked and the phage were amplified in 2 ml of NZY/tet or the entire plate containing phage was scraped, pooled and grown in bulk and processed for injection. Where phage were cultured separately, the cultures were pooled and the phage were injected into mice or rats as described above for a second round of in vivo panning. In some experiments, a third or fourth round of panning was performed. Phage DNA was purified from individual bacterial colonies obtained and the DNA sequences encoding the peptides expressed by selected phage were determined (see Koivunen et al., supra, 1994b).
After two or three rounds of in vivo panning of mice injected with a cyclic CX3CX3CX3C (SEQ ID NO: 25) or a cyclic CX6C (SEQ ID NO: 26) phage display library, four peptides that homed to lung were identified.
To determine the specificity of lung homing of the individual peptides identified, phage displaying the peptides were amplified individually, diluted to the same input titer and administered to mice. Following administration, control kidney and brain organ was removed and the number of TU of phage in lung, kidney and brain was determined. The results shown in FIG. 2 reveal that 10× and 35× more phage having the peptide sequence CGFECVRQCPERC (SEQ ID NO: 1; GFE-1) bound to lung than to kidney and brain, respectively. […] The lung homing peptides CGFECVRQCPERC (SEQ ID NO: 1; GFE-1), CGFELETC (SEQ ID NO: 2; GFE-2), CTLRDRNC (SEQ ID NO: 15) and CIGEVEVC (SEQ ID NO: 16) are enriched in lung at 35×, 9×, 6× and 5×, respectively, over unselected phage (see FIG. 2).

primary brain cells = experiment: phage binding assay on primary brain cells; design: species or system mice; settings: in vitro
Protocol: Phage binding to primary cells was performed as follows. Briefly, Balb/c mice (Harlan Sprague Dawley) were anesthetized with 0.017 ml/g of Avertin as described in Gardner et al., Lab. Animal Sci. 45:199-204 (1995), which is incorporated herein by reference. Under deep anesthesia, mice were perfused through the heart with 10 ml Dulbecco's modified Eagle's medium (DMEM; Irvine Scientific; Santa Ana, Calif.). The lungs, kidneys and brain were then collected, minced, placed in 2 ml of DMEM containing 0.5% BSA (Intergen; Purchase, N.Y.) and 0.5 μg/ml collagenase V (SIGMA) and incubated at 37° C. for 25 minutes. Following collagenase treatment, the tissue was forced through a […] pore cell strainer (Becton Dickinson; Franklin Lake, N.J.). The filtered cells were washed once with 10 ml DMEM supplemented with 10% serum. […] To ensure an equal input of the different phage to be tested, phage were titered several times using K91Kan bacteria (Smith and Scott, supra, 1993).
For the binding reaction, 10^9 transducing units (TU) of phage were incubated with 5×10^6 cells in 1 ml DMEM supplemented with 10% serum. The binding was performed at 4° C. for 2 hours with gentle agitation. […] Plates were incubated at 37° C. overnight before the colonies were counted (transducing units, TU).

[1] = individually amplified phage, FIG. 2

Sequence: CGFECVRQCPERC [lung homing peptide]
- % OF MOTIF AMONG ALL CLONES (lung; LUNG): 40%
- LUNG/BRAIN RATIO (lung; LUNG section): 60
- homing of lung homing phage to control kidney or brain (lung): few phage detected in kidney or brain; also recorded: no selective homing to kidney or brain was detected
- homing of lung homing phage to control kidney or brain (lung; listed as GFE-1): no specific phage homing to kidney was detected
- enriched in lung over unselected phage (lung; [1]): 35 ×
- phage bound to lung than to brain (lung; [1]): 35 ×
- phage bound to lung than to kidney (lung; [1]): 10 ×
- phage binding to primary brain cells (primary brain cells): no specific binding
